Source: US20030186434A1, “Method of forming vertebrate pancreas in vitro” (priority 2002, published 2003)

Experiments:
[1] = tested on: blastopore upper lip of early gastrula of a Xenopus; assay: Tissue differentiation of blastopore upper lip cultured continuously in retinoic acid solution for 10 days; assay type: cell-based
[2] = tested on: blastopore upper lip of early gastrula of a Xenopus; assay: Timing of retinoic acid treatment: preculture of blastopore upper lip before one hour treatment; assay type: cell-based; settings: 10^−4 M, treated 1 hour, cultured 10 days
Experimental: Regarding the other tissues, an intestinal epithelium was formed aside from notochord and mesenchyme in those precultured for 0 and 5 hours. However, as to those treated with retinoic acid after preculture for more than 15 hours, the formation of intestinal epithelium was suppressed and the differentiation rate of epithelium, coelomic epithelium and pharyngeal epithelium increased.

[3] = 10^−9 M, continuous 10 days, 11 specimens
[4] = preculture 0 hours, 34 specimens
[5] = preculture 5 hours, 36 specimens
[6] = preculture 15 hours, 40 specimens
[7] = preculture 25 hours, 34 specimens

SMILES: CC1=C(/C=C/C(C)=C/C=C/C(C)=C/C(=O)O)C(C)(C)CCC1 [Retinoic acid, retinoic acid]
- Epidermis differentiated, specimens (%) [1, 3]: 11 (100)
- Eye or its fragments differentiated, specimens (%) [1, 3]: 0 (0)
- Gastric gland differentiated, specimens (%) [1, 3]: 0 (0)
- Hemocyte differentiated, specimens (%) [1, 3]: 0 (0)
- Intestinal epithelium differentiated, specimens (%) [1, 3]: 0 (0)
- Mesenchyme differentiated, specimens (%) [1, 3]: 10 (91)
- Muscle differentiated, specimens (%) [1, 3]: 9 (82)
- Neural tissue differentiated, specimens (%) [1, 3]: 9 (82)
- Notochord differentiated, specimens (%) [1, 3]: 11 (100)
- Pancreas differentiated, specimens (%) [1, 3]: 0 (0)
- Pharyngeal epithelium differentiated, specimens (%) [1, 3]: 7 (64)
- Pronephros differentiated, specimens (%) [1, 3]: 0 (0)
- Yolk-rich cell differentiated, specimens (%) [1, 3]: 8 (73)
- formation rate of pancreas ([1]; continuous treatment 10 days, any concentration tested): about 10%
- Atypical epidermis differentiated, specimens (%) [2, 4]: 0 (0)
- Cartilage differentiated, specimens (%) [2, 4]: 0 (0)
- Cement gland differentiated, specimens (%) [2, 4]: 0 (0)
- Coelomic epithelium differentiated, specimens (%) [2, 4]: 0 (0)
- Ear vesicle differentiated, specimens (%) [2, 4]: 0 (0)
- Epidermis differentiated, specimens (%) [2, 4]: 11 (32)
- Eye or its fragments differentiated, specimens (%) [2, 4]: 0 (0)
- Gastric gland differentiated, specimens (%) [2, 4]: 0 (0)
- Hemocyte differentiated, specimens (%) [2, 4]: 0 (0)
- Intestinal epithelium differentiated, specimens (%) [2, 4]: 34 (100)
- Mesenchyme differentiated, specimens (%) [2, 4]: 23 (68)
- Muscle differentiated, specimens (%) [2, 4]: 1 (3)
- Neural tissue differentiated, specimens (%) [2, 4]: 0 (0)
- Notochord differentiated, specimens (%) [2, 4]: 33 (97)
- Pancreas differentiated, specimens (%) [2, 4]: 24 (71)
- Pharyngeal epithelium differentiated, specimens (%) [2, 4]: 25 (74)
- Pronephros differentiated, specimens (%) [2, 4]: 0 (0)
- Yolk-rich cell differentiated, specimens (%) [2, 4]: 32 (94)
- Atypical epidermis differentiated, specimens (%) [2, 5]: 0 (0)
- Cartilage differentiated, specimens (%) [2, 5]: 0 (0)
- Cement gland differentiated, specimens (%) [2, 5]: 0 (0)
- Coelomic epithelium differentiated, specimens (%) [2, 5]: 0 (0)
- Ear vesicle differentiated, specimens (%) [2, 5]: 0 (0)
- Epidermis differentiated, specimens (%) [2, 5]: 5 (14)
- Eye or its fragments differentiated, specimens (%) [2, 5]: 0 (0)
- Gastric gland differentiated, specimens (%) [2, 5]: 0 (0)
- Hemocyte differentiated, specimens (%) [2, 5]: 0 (0)
- Intestinal epithelium differentiated, specimens (%) [2, 5]: 33 (92)
- Mesenchyme differentiated, specimens (%) [2, 5]: 30 (83)
- Muscle differentiated, specimens (%) [2, 5]: 0 (0)
- Neural tissue differentiated, specimens (%) [2, 5]: 0 (0)
- Notochord differentiated, specimens (%) [2, 5]: 36 (100)
- Pancreas differentiated, specimens (%) [2, 5]: 19 (53)
- Pharyngeal epithelium differentiated, specimens (%) [2, 5]: 27 (75)
- Pronephros differentiated, specimens (%) [2, 5]: 0 (0)
- Yolk-rich cell differentiated, specimens (%) [2, 5]: 30 (83)
- Atypical epidermis differentiated, specimens (%) [2, 6]: 0 (0)
- Cartilage differentiated, specimens (%) [2, 6]: 0 (0)
- Cement gland differentiated, specimens (%) [2, 6]: 0 (0)
- Ear vesicle differentiated, specimens (%) [2, 6]: 0 (0)
- Epidermis differentiated, specimens (%) [2, 6]: 13 (33)
- Eye or its fragments differentiated, specimens (%) [2, 6]: 0 (0)
- Hemocyte differentiated, specimens (%) [2, 6]: 0 (0)
- Mesenchyme differentiated, specimens (%) [2, 6]: 40 (95)
- Muscle differentiated, specimens (%) [2, 6]: 0 (0)
- Neural tissue differentiated, specimens (%) [2, 6]: 0 (0)
- Pronephros differentiated, specimens (%) [2, 6]: 0 (0)
- Atypical epidermis differentiated, specimens (%) [2, 7]: 0 (0)
- Cartilage differentiated, specimens (%) [2, 7]: 0 (0)
- Cement gland differentiated, specimens (%) [2, 7]: 0 (0)
- Coelomic epithelium differentiated, specimens (%) [2, 7]: 16 (47)
- Ear vesicle differentiated, specimens (%) [2, 7]: 0 (0)
- Epidermis differentiated, specimens (%) [2, 7]: 28 (82)
- Eye or its fragments differentiated, specimens (%) [2, 7]: 0 (0)
- Gastric gland differentiated, specimens (%) [2, 7]: 0 (0)
- Hemocyte differentiated, specimens (%) [2, 7]: 0 (0)
- Intestinal epithelium differentiated, specimens (%) [2, 7]: 5 (15)
- Mesenchyme differentiated, specimens (%) [2, 7]: 34 (100)
- Muscle differentiated, specimens (%) [2, 7]: 1 (3)
- Neural tissue differentiated, specimens (%) [2, 7]: 0 (0)
- Notochord differentiated, specimens (%) [2, 7]: 33 (97)
- Pancreas differentiated, specimens (%) [2, 7]: 0 (0)
- Pharyngeal epithelium differentiated, specimens (%) [2, 7]: 34 (100)
- Pronephros differentiated, specimens (%) [2, 7]: 0 (0)
- Yolk-rich cell differentiated, specimens (%) [2, 7]: 20 (59)
